PubChem BioAssay (NCI)
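Following 48 hours of exposure in 96-well plates, responses at five concentrations were used to interpolate endpoints linearly. At the TGI there is no net growth.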

What was measured:
Experiment in all cases: inhibition of tumour cell growth, NCI panel, 48 h
[1] = system: K-562 leukemia
[2] = system: SR leukemia
[3] = system: SNB-19 CNS
[4] = system: UACC-257 melanoma
[5] = system: SF-295 CNS
[6] = system: DMS 273 small cell lung
[7] = system: A549 NSCLC
[8] = system: EKVX NSCLC
[9] = system: HCC-2998 colon
[10] = system: NCI-H522 lung
[11] = system: UACC-62 melanoma
[12] = system: KM12 colon
[13] = system: 786-0 renal
[14] = system: COLO 205 colon
[15] = system: SW-620 colon
[16] = system: OVCAR-3 ovarian
[17] = system: TK-10 renal
[18] = system: HS 578T breast
[19] = system: MDA-MB-435
[20] = system: CAKI-1 renal

SMILES	TGI [1]	TGI [2]	TGI [3]	TGI [4]	TGI [5]	TGI [6]	TGI [7]	TGI [8]	TGI [9]	TGI [10]	TGI [11]	TGI [12]	TGI [13]	TGI [14]	TGI [15]	TGI [16]	TGI [17]	TGI [18]	TGI [19]	TGI [20]
C/C(=N\NS(=O)(=O)c1ccc(C)cc1)c1cc2ccccc2n1C	> 100 µM	> 100 µM	> 100 µM	> 100 µM	> 100 µM	> 100 µM	> 100 µM	> 100 µM	> 100 µM	> 100 µM	> 100 µM	> 100 µM	> 100 µM	> 100 µM	> 100 µM	–	–	–	–	–
COc1ccc(N2C(=O)c3c(c4[nH]c5ccc(OC)cc5c4c4ccc(C(C)(C)C)cc34)C2=O)cc1	> 100 µM	–	> 100 µM	> 100 µM	> 100 µM	> 100 µM	> 100 µM	> 100 µM	> 100 µM	> 100 µM	–	> 100 µM	> 100 µM	> 100 µM	–	> 100 µM	> 100 µM	–	–	–
O=C(O)CCNC(=O)c1cc(N(CCBr)CCBr)c([N+](=O)[O-])cc1[N+](=O)[O-]	> 100 µM	> 100 µM	> 100 µM	> 100 µM	> 100 µM	–	> 100 µM	> 100 µM	> 100 µM	> 100 µM	–	> 100 µM	> 100 µM	> 100 µM	> 100 µM	> 100 µM	> 100 µM	> 100 µM	> 100 µM	> 100 µM
CC(Oc1ccc(OCC2CCCCC2)cc1)C(=O)NCCO (stereo not drawn)	> 100 µM	–	> 100 µM	> 100 µM	> 100 µM	> 100 µM	> 100 µM	–	–	> 100 µM	> 100 µM	> 100 µM	> 100 µM	–	–	> 100 µM	> 100 µM	–	–	–
CSc1c(C(=O)Nc2ccc(C)cc2)c(N)n(N)c(=O)c1C#N	> 100 µM	> 100 µM	> 100 µM	> 100 µM	–	–	> 100 µM	> 100 µM	> 100 µM	> 100 µM	> 100 µM	> 100 µM	> 100 µM	> 100 µM	> 100 µM	> 100 µM	> 100 µM	> 100 µM	> 100 µM	> 100 µM
COC(=O)C1=CC2CC1C(S(=O)(=O)c1ccccc1)C2S(=O)(=O)c1ccccc1 (stereo not drawn)	32.3 µM	11.3 µM	> 100 µM	32.7 µM	53.8 µM	23.4 µM	69.3 µM	–	34.4 µM	–	67.9 µM	–	22.2 µM	22 µM	21 µM	21.2 µM	24.7 µM	–	–	20.8 µM
CC1(c2cccc(N)c2)C2C(=O)NC(=O)C1C(=O)NC2=O (stereo not drawn)	67.3 µM	–	> 100 µM	> 100 µM	58.8 µM	73.3 µM	> 100 µM	> 100 µM	> 100 µM	46.3 µM	> 100 µM	> 100 µM	> 100 µM	50.2 µM	> 100 µM	57.1 µM	> 100 µM	–	–	> 100 µM
CN(C)CCC(CCN(C)C)=NOC(=O)c1ccccc1	> 100 µM	–	> 100 µM	> 100 µM	> 100 µM	> 100 µM	> 100 µM	> 100 µM	> 100 µM	> 100 µM	> 100 µM	> 100 µM	> 100 µM	> 100 µM	> 100 µM	> 100 µM	> 100 µM	–	–	> 100 µM
CC(=O)OC1CC2(C)OC(Cc3ccccc32)O1 (stereo not drawn)	> 100 µM	> 100 µM	> 100 µM	> 100 µM	> 100 µM	> 100 µM	> 100 µM	> 100 µM	> 100 µM	> 100 µM	> 100 µM	> 100 µM	> 100 µM	> 100 µM	> 100 µM	> 100 µM	> 100 µM	–	–	–
c1cnc2c(c1)-n1cccc1C1(CCSC1)NN2 (stereo not drawn)	> 100 µM	> 100 µM	> 100 µM	> 100 µM	> 100 µM	> 100 µM	> 100 µM	> 100 µM	> 100 µM	> 100 µM	–	> 100 µM	> 100 µM	> 100 µM	> 100 µM	> 100 µM	> 100 µM	–	–	> 100 µM
Cc1ccc2c(c1)C1C(CO2)C(c2ccccc2)=NN1c1ccccc1 (stereo not drawn)	> 100 µM	–	> 100 µM	> 100 µM	> 100 µM	> 100 µM	> 100 µM	> 100 µM	> 100 µM	> 100 µM	–	> 100 µM	> 100 µM	> 100 µM	> 100 µM	> 100 µM	> 100 µM	–	–	–
CC(C)COC(=O)OC(=O)c1ccc(N(C)Cc2cnc3nc(N)nc(N)c3n2)cc1	> 100 µM	> 100 µM	> 100 µM	> 100 µM	> 100 µM	–	> 100 µM	> 100 µM	> 100 µM	> 100 µM	> 100 µM	> 100 µM	> 100 µM	> 100 µM	> 100 µM	> 100 µM	> 100 µM	> 100 µM	> 100 µM	> 100 µM
Cc1cc2oc(-c3ccccc3)c(C)c(=O)c2c2c1OC(C)(C)S2	> 100 µM	> 100 µM	> 100 µM	> 100 µM	> 100 µM	> 100 µM	> 100 µM	> 100 µM	> 100 µM	> 100 µM	> 100 µM	> 100 µM	> 100 µM	> 100 µM	> 100 µM	> 100 µM	> 100 µM	–	–	–
Cc1cc(C)n2c(-c3ccccc3)c(C)cc2n1	> 100 µM	–	> 100 µM	> 100 µM	> 100 µM	> 100 µM	> 100 µM	> 100 µM	> 100 µM	64.4 µM	> 100 µM	> 100 µM	> 100 µM	> 100 µM	> 100 µM	83.3 µM	> 100 µM	–	–	> 100 µM
